Reference: patent US11066414B2, “Cot modulators and methods of use thereof” (Gilead Sciences, Inc., priority 2015, dated 2021)
pEC50: −log10 of the molar value.

System: TNFα
Test: Cot Monocyte TNFα Cell Based Assay
Conditions: Homo sapiens, Monocyte, read-out: EC50 TNF, LPS-stimulated human monocytes, TNFα

pEC50	Compound
5.58	Cc1ncccc1[C@H](Nc1cc(Cl)c2ncc(C#N)c(Nc3cccc(Cl)c3)c2c1)c1c[nH]nn1 [Example 224, (S)-8-chloro-4-((3-chlorophenyl)amino)-6-(((2-methylpyridin-3-yl)(1H-1,2,3-triazol-4-yl)methyl)amino)-quinoline-3-carbonitrile]
6.46	Cc1ncccc1[C@H](Nc1cc(Cl)c2ncc(C#N)c(Nc3ccc(Cl)c(Cl)c3F)c2c1)c1cn(C(C)C)nn1 [Example 232, (S)-8-chloro-4-((3,4-dichloro-2-fluorophenyl)amino)-6-(((1-isopropyl-1H-1,2,3-triazol-4-yl)(2-methylpyridin-3-yl)methyl)amino)quinoline-3-carbonitrile]
6.62	Cc1ocnc1[C@H](Nc1cc(Cl)c2ncc(C#N)c(Nc3ccc(F)c(Cl)c3)c2c1)c1cn(C2CCN(C(C)(C)C)CC2)nn1 [Example 263, (S)-6-(((1-(1-(tert-butyl)piperidin-4-yl)-1H-1,2,3-triazol-4-yl)(5-methyloxazol-4-yl)methyl)amino)-8-chloro-4-((3-chloro-4-fluorophenyl)amino)quinoline-3-carbonitrile]
6.53	Cc1ncccc1[C@H](Nc1cc(Cl)c2ncc(C#N)c(Nc3ccc(F)c(Cl)c3)c2c1)c1c[nH]nn1 [Example 272, (S)-8-chloro-4-((3-chloro-4-fluorophenyl)amino)-6-(((2-methylpyridin-3-yl)(1H-1,2,3-triazol-4-yl)methyl)amino)quinoline-3-carbonitrile]
6.09	Cc1ccc([C@H](Nc2cc(Cl)c3ncc(C#N)c(Nc4ccc(F)c(Cl)c4)c3c2)c2cn(C(C)C)nn2)cn1 [Example 280, (S)-8-chloro-4-((3-chloro-4-fluorophenyl)amino)-6-(((1-isopropyl-1H-1,2,3-triazol-4-yl)(6-methylpyridin-3-yl)methyl)amino)quinoline-3-carbonitrile]
5.88	CC(C)(C)N1CCC(n2cc([C@@H](Nc3cc(Cl)c4ncc(C#N)c(Nc5cncc(Cl)c5)c4c3)c3cccnc3)nn2)CC1 [Example 284, (S)-6-(((1-(1-(tert-butyl)piperidin-4-yl)-1H-1,2,3-triazol-4-yl)(pyridin-3-yl)methyl)amino)-8-chloro-4-((5-chloropyridin-3-yl)amino)quinoline-3-carbonitrile]
6.49	CC(C)(C)N1CCC(n2cc([C@@H](Nc3cc(Cl)c4ncc(C#N)c(Nc5ccc(F)c(Cl)c5)c4c3)c3cnc(F)c(F)c3)nn2)CC1 [Example 292, (S)-6-(((1-(1-(tert-butyl)piperidin-4-yl)-1H-1,2,3-triazol-4-yl)(5,6-difluoropyridin-3-yl)methyl)amino)-8-chloro-4-((3-chloro-4-fluorophenyl)amino)quinoline-3-carbonitrile]
6.38	CC(C)n1cc([C@@H](Nc2cc(Cl)c3ncc(C#N)c(Nc4ccc(F)c(Cl)c4)c3c2)c2csc(N3CCOCC3)n2)nn1 [Example 301, (S)-8-chloro-4-((3-chloro-4-fluoro-phenyl)amino)-6-(((1-isopropyl-1H-1,2,3-triazol-4-yl)(2-morpholinothiazol-4-yl)methyl)amino)quinoline-3-carbonitrile]
5.91	CC(C)n1cc([C@@H](Nc2cc(Cl)c3ncc(C#N)c(Nc4ccc(F)c(Cl)c4)c3c2)c2cocn2)nn1 [Example 312, (S)-8-chloro-4-((3-chloro-4-fluorophenyl)amino)-6-(((1-isopropyl-1H-1,2,3-triazol-4-yl)(oxazol-4-yl)methyl)amino)quinoline-3-carbonitrile]

More lines, now with the values behind:

Compound	pEC50
N#Cc1cnc2c(Cl)cc(N[C@@H](c3cccnc3)c3cn(C4CC4)nn3)cc2c1Nc1cnc(F)c(F)c1 [Example 206, (S)-8-chloro-6-(((1-cyclopropyl-1H-1,2,3-triazol-4-yl)(pyridin-3-yl)methyl)amino)-4-((5,6-difluoropyridin-3-yl)amino)quinoline-3-carbonitrile]	6.68
N#Cc1cnc2c(Cl)cc(N[C@@H](c3cccnc3)c3cn(CC(F)(F)F)nn3)cc2c1Nc1cnc(F)c(F)c1 [Example 209, (S)-8-chloro-4-((5,6-difluoropyridin-3-yl)amino)-6-((pyridin-3-yl(1-(2,2,2-trifluoroethyl)-1H-1,2,3-triazol-4-yl)methyl)amino)quinoline-3-carbonitrile]	6.03
CC[C@@H](Nc1c(C#N)cnc2c(Cl)cc(N[C@@H](c3cccnc3)c3cn(C4CCCC4)nn3)cc12)c1ccccc1 [Example 213, 8-chloro-6-(((S)-(1-cyclopentyl-1H-1,2,3-triazol-4-yl)(pyridin-3-yl)methyl)amino)-4-(((R)-1-phenylpropyl)amino)quinoline-3-carbonitrile]	6.99
Cc1ncsc1[C@H](Nc1cc(Cl)c2ncc(C#N)c(Nc3ccc(Cl)c(Cl)c3F)c2c1)c1cn(C2COC2)nn1 [Example 217, (R)-8-chloro-4-((3,4-dichloro-2-fluorophenyl)amino)-6-(((4-methylthiazol-5-yl)(1-(oxetan-3-yl)-1H-1,2,3-triazol-4-yl)methyl)amino)quinoline-3-carbonitrile]	6.58
Cc1ncccc1[C@H](Nc1cc(Cl)c2ncc(C#N)c(N[C@H](C)c3ccccc3)c2c1)c1c[nH]nn1 [Example 229, 8-chloro-6-(((S)-(2-methylpyridin-3-yl)(1H-1,2,3-triazol-4-yl)methyl)amino)-4-(((R)-1-phenylethyl)amino)quinoline-3-carbonitrile]	5.83
Cc1nc(C)c([C@H](Nc2cc(Cl)c3ncc(C#N)c(Nc4ccc(F)c(Cl)c4)c3c2)c2cn(C3CCN(C(C)(C)C)CC3)nn2)s1 [Example 261, (R)-6-(((1-(1-(tert-butyl)piperidin-4-yl)-1H-1,2,3-triazol-4-yl)(2,4-dimethyl-thiazol-5-yl)methyl)amino)-8-chloro-4-((3-chloro-4-fluorophenyl)amino)-quinoline-3-carbonitrile]	6.46
Cc1ncoc1[C@H](Nc1cc(Cl)c2ncc(C#N)c(Nc3ccc(F)c(Cl)c3)c2c1)c1cn(C2CCN(C(C)(C)C)CC2)nn1 [Example 265, (R)-6-(((1-(1-(tert-butyl)piperidin-4-yl)-1H-1,2,3-triazol-4-yl)(4-methyloxazol-5-yl)methyl)amino)-8-chloro-4-((3-chloro-4-fluorophenyl)amino)quinoline-3-carbonitrile]	6.37
Cn1cnc([C@H](Nc2cc(Cl)c3ncc(C#N)c(Nc4ccc(F)c(Cl)c4)c3c2)c2c[nH]nn2)c1 [Example 266, (S)-8-chloro-4-((3-chloro-4-fluorophenyl)amino)-6-(((1-methyl-1H-imidazol-4-yl)(1H-1,2,3-triazol-4-yl)methyl)amino)-quinoline-3-carbonitrile]	4.54
Cn1ccc([C@H](Nc2cc(Cl)c3ncc(C#N)c(Nc4ccc(F)c(Cl)c4)c3c2)c2cn(C3CCN(C(C)(C)C)CC3)nn2)n1 [Example 268, (R)-6-(((1-(1-(tert-butyl)piperidin-4-yl)-1H-1,2,3-triazol-4-yl)(1-methyl-1H-pyrazol-3-yl)methyl)amino)-8-chloro-4-((3-chloro-4-fluorophenyl)-amino)quinoline-3-carbonitrile]	6.63
Cc1ncccc1[C@H](Nc1cc(Cl)c2ncc(C#N)c(Nc3ccc(F)c(Cl)c3)c2c1)c1cn(COC(=O)C(C)(C)C)nn1 [Example 274, (S)-(4-(((8-chloro-4-((3-chloro-4-fluorophenyl)amino)-3-cyanoquinolin-6-yl)amino)(2-methylpyridin-3-yl)methyl)-1H-1,2,3-triazol-1-yl)methyl pivalate]	6.43
Cc1ccc([C@H](Nc2cc(Cl)c3ncc(C#N)c(Nc4ccc(F)c(Cl)c4)c3c2)c2cn(C3CCN(C(C)(C)C)CC3)nn2)cn1 [Example 281, (S)-6-(((1-(1-(tert-butyl)piperidin-4-yl)-1H-1,2,3-triazol-4-yl)(6-methylpyridin-3-yl)methyl)amino)-8-chloro-4-((3-chloro-4-fluorophenyl)-amino)quinoline-3-carbonitrile]	6.24
COc1ccc([C@H](Nc2cc(Cl)c3ncc(C#N)c(Nc4ccc(F)c(Cl)c4)c3c2)c2cn(C3CCN(C(C)(C)C)CC3)nn2)cn1 [Example 290, (S)-6-(((1-(1-(tert-butyl)piperidin-4-yl)-1H-1,2,3-triazol-4-yl)(6-methoxy-pyridin-3-yl)methyl)amino)-8-chloro-4-((3-chloro-4-fluorophenyl)amino)-quinoline-3-carbonitrile]	6.73
CC(C)n1cc([C@@H](Nc2cc(Cl)c3ncc(C#N)c(Nc4ccc(F)c(Cl)c4)c3c2)c2cncs2)nn1 [Example 303, (R)-8-chloro-4-((3-chloro-4-fluorophenyl)amino)-6-(((1-isopropyl-1H-1,2,3-triazol-4-yl)(thiazol-5-yl)methyl)amino)quinoline-3-carbonitrile]	6.06

Same assay, conditions: read-out: EC50 TNF; LPS-stimulated human monocytes, TNFα

pEC50	Compound
6.64	Cc1ncccc1[C@H](Nc1cc(Cl)c2ncc(C#N)c(N[C@H](C)c3ccccc3)c2c1)c1cn(C2CCN(C(C)(C)C)CC2)nn1 [Example 231]
6.48	Cc1cncc([C@H](Nc2cc(Cl)c3ncc(C#N)c(Nc4ccc(F)c(Cl)c4)c3c2)c2c[nH]nn2)c1 [Example 249, (S)-8-chloro-4--((3-chloro-4-fluorophenyl)amino)-6-(((5-methylpyridin-3-yl)(1H-1,2,3-triazol-4-yl)methyl)amino)quinoline-3-carbonitrile]
6.32	CC(C)Oc1ncccc1[C@H](Nc1cc(Cl)c2ncc(C#N)c(Nc3ccc(F)c(Cl)c3)c2c1)c1cn(C2CCN(C(C)(C)C)CC2)nn1 [Example 291, (S)-6-(((1-(1-(tert-butyl)piperidin-4-yl)-1H-1,2,3-triazol-4-yl)(2-isopro-poxypyridin-3-yl)methyl)amino)-8-chloro-4-((3-chloro-4-fluorophenyl)-amino)quinoline-3-carbonitrile]

Further lines, the compound ahead of its results:

Compound	pEC50
CC(C)(C)N1CCC(n2cc([C@@H](Nc3cc(Cl)c4ncc(C#N)c(Nc5cnc(F)c(F)c5)c4c3)c3cccnc3)nn2)CC1 [Example 208]	6.33
Cc1cc(Cl)ncc1[C@H](Nc1cc(Cl)c2ncc(C#N)c(Nc3ccc(F)c(Cl)c3)c2c1)c1cn(C2CCN(C(C)(C)C)CC2)nn1 [Example 289]	6.08
